Assay [1] deals with JAK2 independent human chronic myelogenous leukaemia cell line K562. The assay is described as follows: Cell proliferation assay, K562. Conditions: K562 cells, 72 hours, CellTiter-Glo, read-out: IC50 K-562. In kind it is cell-based.
In another assay the target is TYK2 kinase domain (Homo sapiens (Human), UniProt P29597). The assay is described as follows: Biochemical assay for inhibitors of JAK kinase activity, TYK2. To be noted: TYK2 kinase domain 3 nM, 31 μM ATP. On the procedure:
(§1) Specific JAK2, JAK1 or JAK3 peptide substrates are trans-phosphorylated by JAK kinases in the presence of ATP traced with 33P-γ-ATP. At the end of the phosphorylation reaction, the unreacted ATP, cold and radioactive, is captured by an excess of dowex ion exchange resin that eventually settles by gravity to the bottom of the reaction plate. The supernatant is subsequently withdrawn and transferred into a counting plate that is then evaluated by β-counting.
(§2) 500 g of wet resin (SIGMA, custom prepared resin DOWEX 1×8 200-400 mesh, 2.5 Kg) are weighed out and diluted 2 to 1 in 150 mM sodium formate, pH 3.00. The resin is allowed to settle down overnight and then the supernatant is discarded. After three washes as above over a couple of days, the resin is allowed to settle and two volumes (with respect to the resin volume) of 150 mM sodium formate buffer are added.
(§3) Kinase buffer was composed of 50 mM HEPES pH 7.5 containing 10 mM MgCl2, 2.5 mM DTT, 10 μM Na3VO4 and 0.2 mg/mL BSA.
(§4) The peptidic substrate was purchased from American Peptide Company (Sunnyvale, Calif.).
(§5) Data are analyzed by Symix Assay Explorer software (Symix Technologies Inc.) that provides sigmoidal fitting algorithm of the 8 points dilutions curves for IC50 determination.

For assay [2], the system named is JAK2 dependent human megakaryoblastic leukemia cell line SET-2. The assay is described as follows: Cell proliferation assay, SET-2. In kind it is cell-based. Conditions: SET-2 cells, 72 hours, CellTiter-Glo. For orientation: In ATP-based viability assays light output follows the ATP content of the culture.
Another assay concerns the target JAK1 kinase domain (Homo sapiens (Human), UniProt P23458). As to the kind of experiment: Biochemical assay for inhibitors of JAK kinase activity, JAK1. Conditions: preactivated JAK1 kinase domain 2.5 nM, 100 μM ATP. On the procedure: as §1, §2, §3
Assays were performed with the JAK1 kinase domain (residues 861-1152 of the 1154 amino acid long full-length sequence, accession number P23458 of UniProtKB/Swiss-Prot database).
The JAK1 kinase domain was preactivated with ATP for 1 h at 28° C. in order to obtain a linear kinetic.
as §4, §5

Assay [3] has as its system IL-2 dependent human T lymphoma cell line DERL-7. As to the kind of experiment: Cell proliferation assay, DERL-7. In kind it is cell-based. To be noted: DERL7; DERL-7 cells, 20 ng/ml human IL-2, 72 hours, CellTiter-Glo. On the procedure:
the JAK2 dependent human megakaryoblastic leukemia cell line SET-2 (DSMZ, Braunschweig GERMANY), and JAK2 independent human chronic myelogenous leukaemia cell line K562 (ECACC, Wiltshire, UK) were cultured in RPMI-1640 medium-Glutamax (Gibco BRL, Gaithesburg, Md., USA), supplemented with 10% fetal bovine serum (FBS) at 37° C. and 5% CO2. The IL-2 dependent human T lymphoma cell line DERL-7 (DSMZ, Braunschweig GERMANY) was used to test the activity of compounds in cells on JAK1/JAK3 kinases activated by IL-2. The DERL-7 cell lines were cultured in RPMI-1640 medium-Glutamax (Gibco BRL, Gaithesburg, Md., USA), supplemented with 20% FBS and 20 ng/ml of human IL-2 (Sigma-Aldrich, St. Louis, Mo., USA).
Approximately 5×10^3 cells were plated into 384 microtiter plate wells in 50 μL of growth media with different concentrations of inhibitors. The cells were incubated at 37° C. and 5% CO2 for 72 hours, than the plates were processed using CellTiter-Glo assay (Promega, Madison, Wis., USA) following the manufacturer's instruction. Briefly 25 μL/well reagent solution are added to each wells and after 5 minutes shacking micro-plates are read by Envision luminometer (PerkinElmer, Waltham, Mass., USA).
as §5

A further assay addresses JAK2 kinase domain (Homo sapiens (Human), UniProt O60674). As to the kind of experiment: Biochemical assay for inhibitors of JAK kinase activity, JAK2. To be noted: JAK2 kinase domain 1 nM, 60 μM ATP. Here is the method:
as §1, §2, §3, §4, §5

Sequence of JAK1 kinase domain (P23458 861-1152): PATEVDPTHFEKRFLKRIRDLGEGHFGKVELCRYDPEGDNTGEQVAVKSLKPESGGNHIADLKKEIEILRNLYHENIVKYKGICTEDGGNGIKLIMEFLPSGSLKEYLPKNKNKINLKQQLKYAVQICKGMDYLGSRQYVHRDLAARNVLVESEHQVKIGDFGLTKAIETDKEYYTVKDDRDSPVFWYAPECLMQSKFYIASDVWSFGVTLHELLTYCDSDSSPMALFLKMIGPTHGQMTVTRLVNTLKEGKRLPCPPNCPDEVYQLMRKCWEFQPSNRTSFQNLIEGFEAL
Sequence of TYK2 kinase domain (P29597 833-1187): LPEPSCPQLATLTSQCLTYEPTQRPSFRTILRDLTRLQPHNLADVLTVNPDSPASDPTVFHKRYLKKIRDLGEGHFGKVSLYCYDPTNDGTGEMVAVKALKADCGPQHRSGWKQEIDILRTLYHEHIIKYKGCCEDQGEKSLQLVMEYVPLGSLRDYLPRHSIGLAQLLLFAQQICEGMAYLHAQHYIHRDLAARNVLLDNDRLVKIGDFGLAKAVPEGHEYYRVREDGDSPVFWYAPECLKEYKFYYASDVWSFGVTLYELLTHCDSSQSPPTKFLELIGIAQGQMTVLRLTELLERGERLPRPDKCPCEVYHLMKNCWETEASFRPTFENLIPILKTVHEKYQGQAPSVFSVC
Sequence of JAK2 kinase domain (O60674 849-1124): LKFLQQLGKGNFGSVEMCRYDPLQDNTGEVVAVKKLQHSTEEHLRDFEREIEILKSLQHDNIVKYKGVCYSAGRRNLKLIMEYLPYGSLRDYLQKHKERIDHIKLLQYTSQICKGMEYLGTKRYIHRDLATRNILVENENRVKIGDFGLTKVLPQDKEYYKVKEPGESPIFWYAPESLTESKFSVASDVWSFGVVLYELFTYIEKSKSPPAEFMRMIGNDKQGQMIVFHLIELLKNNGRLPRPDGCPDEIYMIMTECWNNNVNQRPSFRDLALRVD

Regarding `CCc1ccc(C(F)(F)F)cc1-c1cc(-c2ncnc3[nH]ccc23)[nH]c1C(N)=O` [compd 125, 3-[2-Ethyl-5-(trifluoromethyl)phenyl]-5-(7H-pyrrolo[2,3-d]pyrimidin-4-yl)-1H-pyrrole-2-carboxamide], the IC50 in assay [1] was above 10000 nM; against TYK2 kinase domain it was 32 nM; in assay [2], 300 nM; against JAK1 kinase domain, 19 nM; in assay [3] it was 1080 nM; against JAK2 kinase domain it was 6 nM.

Take `CCc1ccc(Cl)cc1-c1cc(-c2ncnc3[nH]ccc23)[nH]c1C(=O)NC` [compd 130, 3-(5-Chloro-2-ethylphenyl)-N-methyl-5-(7H-pyrrolo[2,3-d]pyrimidin-4-yl)-1H-pyrrole-2-carboxamide]: the IC50 is above 10000 nM in assay [1]; 7 nM at TYK2 kinase domain; 400 nM in assay [2]; 11 nM against JAK1 kinase domain; 1600 nM in assay [3]; 3 nM against JAK2 kinase domain.

Turning to `CCc1ccc(Cl)cc1-c1[nH]c(-c2cc(N)ncn2)cc1C(N)=O` [compd 197, 5-(6-Aminopyrimidin-4-yl)-2-(5-chloro-2-ethylphenyl)-1H-pyrrole-3-carboxamide], the 50% inhibitory concentration (IC50) is above 10000 nM in assay [1]; 10 nM at TYK2 kinase domain; 150 nM in assay [2]; 8 nM against JAK1 kinase domain; 257 nM in assay [3]; 1 nM against JAK2 kinase domain.

As to `CCc1ccc(Cl)cc1-c1[nH]c(-c2cc(NC)ncn2)cc1C(N)=O` [compd 198, 2-(5-Chloro-2-ethylphenyl)-5-[6-(methylamino)pyrimidin-4-yl]-1H-pyrrole-3-carboxamide], the IC50 in assay [1] was above 10000 nM; against TYK2 kinase domain, 23 nM; in assay [2], 190 nM; on JAK1 kinase domain, 8 nM; in assay [3] it was 170 nM; on JAK2 kinase domain, 2 nM.

As for `CCc1ccc(Cl)cc1-c1[nH]c(-c2ncnc3[nH]ccc23)cc1C(N)=O` [compd 199, 2-(5-Chloro-2-ethylphenyl)-5-(7H-pyrrolo[2,3-d]pyrimidin-4-yl)-1H-pyrrole-3-carboxamide], the IC50 in assay [1] is above 10000 nM; against TYK2 kinase domain, 3 nM; in assay [2] it was 100 nM; against JAK1 kinase domain, 7 nM; in assay [3] it was 194 nM; against JAK2 kinase domain, 1 nM.

In the case of `CCc1ccc(C(F)(F)F)cc1-c1[nH]c(-c2cc(NC)ncn2)cc1C(N)=O` [compd 219, 2-[2-Ethyl-5-(trifluoromethyl)phenyl]-5-[6-(methylamino)pyrimidin-4-yl]-1H-pyrrole-3-carboxamide], the IC50 in assay [1] was above 10000 nM; against TYK2 kinase domain, 46 nM; in assay [2], 270 nM; at JAK1 kinase domain, 14 nM; in assay [3], 392 nM; against JAK2 kinase domain it was 4 nM.

In the case of `CCc1ccc(C(F)(F)F)cc1-c1[nH]c(-c2ncnc3[nH]ccc23)cc1C(N)=O` [compd 220, 2-[2-Ethyl-5-(trifluoromethyl)phenyl]-5-(7H-pyrrolo[2,3-d]pyrimidin-4-yl)-1H-pyrrole-3-carboxamide], the IC50 in assay [1] is 6870 nM; against TYK2 kinase domain, 20 nM; in assay [2], 150 nM; against JAK1 kinase domain, 19 nM; in assay [3] it was 591 nM; against JAK2 kinase domain it was 2 nM.

With `Cc1ccc(Cl)cc1-n1cc(-c2ncnc3[nH]ccc23)cc1C(N)=O` [compd 229, 1-(5-Chloro-2-methylphenyl)-4-(7H-pyrrolo[2,3-d]pyrimidin-4-yl)-1H-pyrrole-2-carboxamide], the IC50 in assay [1] is above 10000 nM; against TYK2 kinase domain, 2 nM; in assay [2], 80 nM; against JAK1 kinase domain, 3 nM; in assay [3], 463 nM; against JAK2 kinase domain, 1 nM.

Take `Cc1ccc(Cl)cc1-n1cc(-c2ncnc3c2CCN3)cc1C(N)=O` [compd 234, 1-(5-Chloro-2-methylphenyl)-4-(6,7-dihydro-5H-pyrrolo[2,3-d]pyrimidin-4-yl)-1H-pyrrole-2-carboxamide]: the IC50 in assay [1] is above 10000 nM; against TYK2 kinase domain, 8 nM; in assay [2] it was 260 nM; on JAK1 kinase domain it was 8 nM; in assay [3] it was 208 nM; against JAK2 kinase domain, 6 nM.

With `CCc1ccc(Cl)cc1-n1cc(-c2ncnc3c2CCN3)cc1C(N)=O` [compd 241, 1-(5-Chloro-2-ethylphenyl)-4-(6,7-dihydro-5H-pyrrolo[2,3-d]pyrimidin-4-yl)-1H-pyrrole-2-carboxamide], the IC50 in assay [1] was above 10000 nM; against TYK2 kinase domain, 16 nM; in assay [2], 310 nM; at JAK1 kinase domain, 8 nM; in assay [3], 1300 nM; against JAK2 kinase domain, 5 nM.

Turning to `NC(=O)c1cc(-c2ncnc3[nH]ccc23)cn1-c1cc(C(F)(F)F)ccc1Cl` [compd 244, 1-[2-Chloro-5-(trifluoromethyl)phenyl]-4-(7H-pyrrolo[2,3-d]pyrimidin-4-yl)-1H-pyrrole-2-carboxamide], the IC50 in assay [1] came to 7230 nM; at TYK2 kinase domain, 3 nM; in assay [2] it was 60 nM; against JAK1 kinase domain it was 4 nM; in assay [3], 146 nM; against JAK2 kinase domain, 1 nM.

For `Cc1ccc(Cl)cc1-c1cn(-c2ncnc3[nH]ccc23)cc1C(N)=O` [compd 270, 4-(5-Chloro-2-methylphenyl)-1-(7H-pyrrolo[2,3-d]pyrimidin-4-yl)-1H-pyrrole-3-carboxamide], the IC50 worked out at 1890 nM in assay [1]; 43 nM at TYK2 kinase domain; 550 nM in assay [2]; 85 nM on JAK1 kinase domain; 1790 nM in assay [3]; 17 nM at JAK2 kinase domain.

In the case of `CCc1ccc(Cl)cc1-c1[nH]c(-c2cc(NC)ncn2)cc1C(=O)NC` [compd 302, 2-(5-Chloro-2-ethylphenyl)-N-methyl-5-[6-(methylamino)pyrimidin-4-yl]-1H-pyrrole-3-carboxamide], the IC50 came to 6610 nM in assay [1]; 10 nM at TYK2 kinase domain; 130 nM in assay [2]; 1 nM against JAK1 kinase domain; 469 nM in assay [3]; 1 nM against JAK2 kinase domain.

Consider `CCc1ccc(C(F)(F)F)cc1-c1[nH]c(-c2cc(N)ncn2)cc1C(=O)NC` [compd 321, 5-(6-Aminopyrimidin-4-yl)-2-[2-ethyl-5-(trifluoromethyl)phenyl]-N-methyl-1H-pyrrole-3-carboxamide], for which the concentration for half-maximal inhibition (IC50) is above 10000 nM in assay [1]; 38 nM against TYK2 kinase domain; 250 nM in assay [2]; 9 nM against JAK1 kinase domain; 548 nM in assay [3]; 3 nM against JAK2 kinase domain.

For the compound `CCc1ccc(C(F)(F)F)cc1-c1[nH]c(-c2ncnc3[nH]ccc23)cc1C(=O)NC` [compd 323, 2-[2-Ethyl-5-(trifluoromethyl)phenyl]-N-methyl-5-(7H-pyrrolo[2,3-d]pyrimidin-4-yl)-1H-pyrrole-3-carboxamide], the half-maximal inhibitory concentration (IC50) in assay [1] is above 10000 nM; against TYK2 kinase domain, 22 nM; in assay [2], 220 nM; on JAK1 kinase domain it was 6 nM; in assay [3] it was 510 nM; against JAK2 kinase domain it was 3 nM.

The term IC50 denotes the midpoint of a concentration-inhibition curve.

Values taken from patent US9688661B2, “Substituted pyrroles active as kinases inhibitors” (NERVIANO MEDICAL SCIENCES S.R.L., priority 2012, dated 2017).
